From patent US4855287A, “Aminoglycoside compounds, processes for production thereof, and pharamaceutical composition containing the same” (Kowa Company, Ltd., priority 1985, dated 1989)
Where two headings read alike, the source gives them in different places.

Legend:
[1] = Test for concentrations in blood, intrarectal administration; parameters: species or system Male rats; settings: rat, in vivo
Protocol: Male rats (body weight 250-350 g: n=3) which had been caused to fast for 18 hours prior to administration were anesthetized with pentobarbirtal. After the abdomen was incised, the upper part of the duodenum was tied. Each of the test compounds was dissolved in water so that its concentration became 12.5 mg/ml as its starting antibiotic (the compound of formula II), and the solution was intraduodenally administered to the rats in a dose of 2 ml/kg. After the administration, blood was drawn periodically from the tail vein, and the concentration of the starting antibiotic in the blood was measured by antimicrobial assay and liquid chromatography.
Male rats (body weight 250-350 g: n=3) which had been caused to fast for 18 hours prior to administration were anesthetized with pentobarbirtal. After the abdomen was incised, the lower part of the rectum was tied. Each of the test compounds was administered intrarectally in the same dose in the same manner as in (1) above, and the concentration of the starting antibiotic in the blood was measured in the same way as in (1) above.

[2] = system: Bacillus subtilis ATCC 6633; experiment: Test for antibacterial activity (paper disk, diameter of inhibitory zone, before and after incubation in rat liver/kidney homogenate); assay type: cell-based; settings: 200 mcq/ml, 8 mm paper disk
Protocol: Each of the test compounds shown in the following table was dissolved in a concentration of 200 mcq/ml in a homogenate of a 10% physiological saline solution of an organ of a rat, and incubated at 37° C. for 2 hours. An enzymatic reaction was stopped by adding an equal amount of ethanol. The antibacterial activity of the test compound before incubation was compared with that after incubation. The incubation was carried out in an equal amount mixture of a liver homogenate and a kidney homogenate. The antibacterial activity was measured by a paper disk having a diameter of 8 mm using Bacillus subtilis ATCC 6633 as a test organism, and shown by the diameter of the resulting inhibitory zone.

[3] = ATCC6633, after incubation at 37° C. for 2 hours in rat liver homogenate and kidney homogenate, read-out: Diameter of the inhibitory zone, after incubation
[4] = ATCC6633, before incubation, read-out: Diameter of the inhibitory zone, before incubation

SMILES | Maximum concentration in blood Cmax [1] [ng/mL] | Tmax [1] [min] | zone of inhibition at 200 µg/mL [2, 3] [mm] | zone of inhibition at 200 µg/mL [2, 4] [mm]
CC(=O)OC1CCC2(C)C(CCC3C2CC(OC(C)=O)C2(C)C(C(C)CCC(=O)OCCCCOC(=O)CCC(N)C(=O)NCC(=O)N(C)C4C(O)CC(N)C(OC5OC(C(C)N)CCC5N)C4O)CCC32)C1 [Example 27, 2"-N-{γ-O-[4-(3,12-di-O-acetyldeoxycholyloxy)butyl]-L-glutamyl}-5-de-O-methyl-KA-6606I] | 5300 | 30 | 23.2 | 13.5
CCCCCCCCCCCCCCCCCC(=O)OCCCCOC(=O)CC[C@H](N)C(=O)NCC(=O)N(C)C1C(O)CC(N)C(OC2OC(C(C)N)CCC2N)C1O (stereo partly drawn) [Example 24, 2"-N-[γ-O-(4-stearoyloxybutyl)-L-glutamyl]-5-de-O-methyl-KA-6606I] | – | – | 22.6 | 16.2
CCCCCCCCCC(=O)OCC(CCCCOC(=O)CC[C@H](N)C(=O)NCC(=O)N(C)C1C(O)CC(N)C(OC2OC(C(C)N)CCC2N)C1O)OC(=O)CCCCCCCCC (stereo partly drawn) [Example 23, 2"-N-{γ-[5,6-bis-(decanoyloxy)hexyl]-L-glutamyl}-5-de-O-methyl-KA-6606I] | – | – | 19.5 | 10.5
CC(N)C1CCC(N)C(OC2C(N)CC(O)C(N(C)C(=O)CNC(=O)[C@@H](N)CC(=O)Oc3cccc4ccccc34)C2O)O1 (stereo partly drawn) [Example 12, 2"-N-[β-O-(α-naphthyl)-L-aspartyl]-5-de-O-methyl-KA-6606I] | – | – | 18.3 | 12.6
CCCCCCCCCCCCCCCCCC(=O)NCCCNC(=O)CC[C@H](N)C(=O)NCC(=O)N(C)C1C(O)CC(N)C(OC2OC(C(C)N)CCC2N)C1O (stereo partly drawn) [Example 40, 2"-N-[N^γ -(3-stearoylaminopropyl)-L-glutaminyl]-5-de-O-methyl-KA-6606I] | – | – | 16.6 | 14.1
CCCCCCNC(=O)CC[C@H](N)C(=O)NCC(=O)N(C)C1C(O)CC(N)C(OC2OC(C(C)N)CCC2N)C1O (stereo partly drawn) [Example 30, 2"-N-(N^γ-hexyl-L-glutaminyl)-5-de-O-methyl-KA-6606I] | – | – | 19.8 | 15
CCCCCCCCCC(=O)NCCCNC(=O)CC[C@H](N)C(=O)NCC(=O)N(C)C1C(OC)CC(N)C(OC2OC(CNC)CCC2N)C1O (stereo partly drawn) [Example 57, 2"-N-[N^γ -(3-decanoylaminopropyl)-L-glutaminyl]-KA-7038I] | – | – | 23 | 15.9
CCCCCCCCCC(=O)OCCCOC(=O)CC[C@H](N)C(=O)NCC(=O)N(C)C1CCC(N)C(OC2OC(C(C)N)CCC2N)C1O (stereo partly drawn) [Example 56, 2"-N-[N^γ -(3-decanoyloxypropyl)-L-glutamyl)-5-demethoxy-KA-6606I] | – | – | 24.6 | 17.5
CCCOC1CCC2(C)C(CCC3C2CC(OCCC)C2(C)C(C(C)CCC(=O)NCCCNC(=O)CCC(N)C(=O)NCC(=O)N(C)C4C(O)CC(N)C(OC5OC(C(C)N)CCC5N)C4O)CCC32)C1 [Example 46, 2"-N-{N^γ -[3-(3,12-di-O-propyldeoxycholylamino)propyl]-L-glutaminyl}-5-di-O-methyl-KA-6606I] | – | – | 16.6 | 15.9
CCCCCCCCCCCCCCCCCC(=O)OCC(O)COC(=O)C[C@H](N)C(=O)NCC(=O)N(C)C1C(O)CC(N)C(OC2OC(C(C)N)CCC2N)C1O (stereo partly drawn) [Example 13, 2"-N-[β-O-(3-stearoyloxy-2-hydroxypropyl)-L-aspartyl]-5-de-O-methyl-KA-6606I] | – | – | 18.8 | 13.7
CC(=O)NCCCC[C@H](N)C(=O)NCC(=O)N(C)C1C(O)CC(N)C(OC2OC(C(C)N)CCC2N)C1O (stereo partly drawn) [Example 1, 2"-N-(N^ε -acetyl-L-lysyl)-5-de-O-methyl-KA-6606I] | – | – | 25.1 | 14.1
CC(=O)OC1CCC2(C)C(CCC3C2CC(OC(C)=O)C2(C)C(C(C)CCC(=O)NCCCNC(=O)CCC(N)C(=O)NCC(=O)N(C)C4C(O)CC(N)C(OC5OC(C(C)N)CCC5N)C4O)CCC32)C1 [Example 45, 2"-N-{N^γ -[3-(3,12-di-O-acetyldeoxycholylamino)propyl]-L-glutaminyl}-5-de-O-methyl-KA-6606I] | – | – | 16.7 | 14.8
COc1ccc(CSC[C@H](N)C(=O)NCC(=O)N(C)C2C(O)CC(N)C(OC3OC(C(C)N)CCC3N)C2O)cc1 (stereo partly drawn) [Example 51, 2"-N-[S-(p-methoxybenzyl)-L-cysteinyl]-5-de-O-methyl-KA-6606I] | – | – | 25.4 | 18.3
CCCCCCCCCC(=O)NCCCCC(NC(=O)CC[C@H](N)C(=O)NCC(=O)N(C)C1C(O)CC(N)C(OC2OC(C(C)N)CCC2N)C1O)C(=O)OC (stereo partly drawn) [Example 49, 2"-N-{N^γ -[5-(decanoylamino)-1-(methoxycarbonyl)pentyl]-L-glutaminyl}-5-de-O-methyl-KA-6066I] | – | – | 16.1 | 15.9
CCCCCCCCCC(=O)OCC(COC(=O)CCCCCCCCC)OC(=O)CCC(N)C(=O)NCC(=O)N(C)C1C(O)CC(N)C(OC2OC(C(C)N)CCC2N)C1O [Example 16, 2"-N-{γ-O-[2-(1,3-bis-decanoyloxy)propyl]-L-glutamyl}-5-de-O-methyl-KA-6606I] | – | – | 17.5 | 12.5
CCCCCCCCOC(=O)C[C@H](N)C(=O)NCC(=O)N(C)C1C(O)CC(N)C(OC2OC(C(C)N)CCC2N)C1O (stereo partly drawn) [Example 10, 2"-N-(β-O-octyl-L-aspartyl)-5-de-O-methyl-KA-6606I] | – | – | 21.1 | 14.2
CC(N)C1CCC(N)C(OC2C(N)CC(O)C(N(C)C(=O)CNC(=O)[C@@H](N)CCC(=O)N[C@@H](Cc3ccccc3)C(=O)O)C2O)O1 (stereo partly drawn) [Example 47, 2"-N-{N^γ -[(s)-1-carboxy-2-phenyl-ethyl]-L-glutaminyl}-5-de-O-methyl-KA-6606I] | – | – | 17.9 | 9.5
CC(N)C1CCC(N)C(OC2C(N)CC(O)C(N(C)C(=O)CNC(=O)[C@@H](N)CCC(=O)OCCCOC(=O)CC[C@@H](C)[C@H]3CC[C@H]4[C@@H]5CC[C@@H]6C[C@H](O)CC[C@]6(C)[C@H]5C[C@H](O)[C@]34C)C2O)O1 (stereo partly drawn) [Example 20, 2"-N-[γ-O-(3-deoxycholyloxypropyl)-L-glutamyl]-5-de-O-methyl-KA-6606I] | 7760 | 30 | 21.8 | 14.1
CC(N)C1CCC(N)C(OC2C(N)CC(O)C(N(C)C(=O)CNC(=O)[C@@H](N)CSCc3ccc([N+](=O)[O-])cc3)C2O)O1 (stereo partly drawn) [Example 52, 2"-N-[S-(p-nitrobenzyl)-L-cysteinyl]-5-de-O-methyl-KA-6606I] | – | – | 26.2 | 20.7
CCCCCCCCCCCCCCCCCC(=O)OCCCOC(=O)CC[C@H](N)C(=O)NCC(=O)N(C)C1C(O)CC(N)C(OC2OC(C(C)N)CCC2N)C1O (stereo partly drawn) [Example 19, 2"-N-[γ-O-(3-stearoyloxypropyl)-L-glutamyl]-5-de-O-methyl-KA-6606I] | – | – | 22.7 | 13.7
CCCCCCCCOC(=O)NCCCC[C@H](N)C(=O)NCC(=O)N(C)C1C(O)CC(N)C(OC2OC(C(C)N)CCC2N)C1O (stereo partly drawn) [Example 7, 2"-N-(N^ε -octyloxycarbonyl-L-lysyl)-5-de-O-methyl-KA-6606I] | – | – | 20.7 | 10.5
CCCCCCCCCC(=O)NCCCNC(=O)CC[C@H](N)C(=O)NCC(=O)N(C)C1C(O)C(OC2OC(C(C)N)CCC2N)C(N)C(O)C1OC (stereo partly drawn) [Example 50, 2"-N-[N^γ -(3-decanoylaminopropyl)-L-glutaminyl)fortimicin A] | – | – | 23.6 | 15
CC(N)C1CCC(N)C(OC2C(N)CC(O)C(N(C)C(=O)CNC(=O)[C@@H](N)CC(=O)OC(C)(C)C)C2O)O1 (stereo partly drawn) [Example 9, 2"-N-(β-O-tert.-butyl-L-aspartyl)-5-de-O-methyl-KA-6606I] | – | – | 23.2 | 12.7
CCCCCCCCCC(=O)SC[C@H](N)C(=O)NCC(=O)N(C)C1C(O)CC(N)C(OC2OC(C(C)N)CCC2N)C1O (stereo partly drawn) [Example 55, 2"-N-(S-decanoyl-L-cysteinyl)-5-de-O-methyl-KA-6606I] | – | – | 18.6 | 10.3
CCCCCCCCCCCCCCCCCC(=O)NCC(=O)NCCCC[C@H](N)C(=O)NCC(=O)N(C)C1C(O)CC(N)C(OC2OC(C(C)N)CCC2N)C1O (stereo partly drawn) [Example 6, 2"-N-[N^ε -(N-stearoylglysyl)-L-lysyl]-5-de-O-methyl-KA-6606I] | – | – | 16.6 | 10.5
